According to patent US10770169B2, “Method of providing a treatment to a subject based on a dynamic pathway map” (THE REGENTS OF THE UNIVERSITY OF CALIFORNIA, priority 2010, dated 2020):
Like-named read-outs stand apart in the source and are kept apart here.

Test system: panel of 55 breast cancer cell lines
Test: Cell growth inhibition assay (Cell Titer Glo, 72 h, 9 doses; GI50, TGI, LC50)
Type: cell-based, human
Settings: Homo sapiens, read-out: GI50 (converted)

**Q.** `COc1cccc2c1C(=O)c1c(O)c3c(c(O)c1C2=O)C[C@@](O)(C(=O)CO)C[C@@H]3O[C@H]1C[C@H](N)[C@@H](O)[C@H](C)O1` [Epirubicin] was tested. Which GI50 (600MPE cell line, censored GI50 values) did it give?
**A.** 347 nM

**Q.** And the GI50 (AU565, AU565 cell line, censored GI50 values)?
**A.** 145 nM

**Q.** What about the GI50 (AU565, cell line AU565) of the same molecule?
**A.** 145 nM

**Q.** And the GI50 (BT-474, BT474 cell line, censored GI50 values)?
**A.** 6760 nM

**Q.** And the GI50 (BT-474, cell line BT474)?
**A.** 6760 nM

**Q.** And the GI50 (BT-483, BT483 cell line, censored GI50 values)?
**A.** 166 nM

**Q.** And the GI50 (BT-483, cell line BT483)?
**A.** 166 nM

**Q.** What about the GI50 (BT-549, BT549 cell line, censored GI50 values) of the same molecule?
**A.** 204 nM

**Q.** What about the GI50 (BT-549, cell line BT549) of the same molecule?
**A.** 204 nM

**Q.** And the GI50 (HCC38, HCC38 cell line, censored GI50 values)?
**A.** 93.3 nM

**Q.** And the GI50 (HCC38, cell line HCC38)?
**A.** 93.3 nM

**Q.** And the GI50 (HCC70, HCC70 cell line, censored GI50 values)?
**A.** 417 nM

**Q.** What about the GI50 (HCC70, cell line HCC70) of the same molecule?
**A.** 417 nM

**Q.** What about the GI50 (HCC202, HCC202 cell line, censored GI50 values) of the same molecule?
**A.** 603 nM

**Q.** What about the GI50 (HCC202, cell line HCC202) of the same molecule?
**A.** 603 nM

**Q.** And the GI50 (HCC1143, HCC1143 cell line, censored GI50 values)?
**A.** 288 nM

**Q.** What about the GI50 (HCC1143, cell line HCC1143) of the same molecule?
**A.** 288 nM

**Q.** What about the GI50 (HCC1187, HCC1187 cell line, censored GI50 values) of the same molecule?
**A.** 1000 nM

**Q.** And the GI50 (HCC1187, cell line HCC1187)?
**A.** 1000 nM

**Q.** What about the GI50 (HCC1395, HCC1395 cell line, censored GI50 values) of the same molecule?
**A.** 447 nM

**Q.** And the GI50 (HCC1395, cell line HCC1395)?
**A.** 447 nM

**Q.** What about the GI50 (HCC1419, HCC1419 cell line, censored GI50 values) of the same molecule?
**A.** 708 nM

**Q.** What about the GI50 (HCC1419, cell line HCC1419) of the same molecule?
**A.** 708 nM

**Q.** And the GI50 (HCC1428, HCC1428 cell line, censored GI50 values)?
**A.** 1350 nM

**Q.** What about the GI50 (HCC1428, cell line HCC1428) of the same molecule?
**A.** 1350 nM

**Q.** And the GI50 (HCC1500, HCC1500 cell line, censored GI50 values)?
**A.** 245 nM

**Q.** And the GI50 (HCC1500, cell line HCC1500)?
**A.** 245 nM

**Q.** And the GI50 (HCC1806, HCC1806 cell line, censored GI50 values)?
**A.** 166 nM

**Q.** What about the GI50 (HCC1806, cell line HCC1806) of the same molecule?
**A.** 166 nM

**Q.** And the GI50 (HCC1937, HCC1937 cell line, censored GI50 values)?
**A.** 204 nM

**Q.** What about the GI50 (HCC1937, cell line HCC1937) of the same molecule?
**A.** 204 nM

**Q.** And the GI50 (HCC1954, HCC1954 cell line, censored GI50 values)?
**A.** 200 nM

**Q.** And the GI50 (HCC1954, cell line HCC1954)?
**A.** 200 nM

**Q.** What about the GI50 (HCC2185 cell line, censored GI50 values) of the same molecule?
**A.** 126 nM

**Q.** And the GI50 (HCC3153 cell line, censored GI50 values)?
**A.** 646 nM

**Q.** What about the GI50 (LY2 cell line, censored GI50 values) of the same molecule?
**A.** 214 nM

**Q.** And the GI50 (MCF7, MCF7 cell line, censored GI50 values)?
**A.** 355 nM

**Q.** What about the GI50 (MCF7, cell line MCF7) of the same molecule?
**A.** 355 nM

**Q.** What about the GI50 (MDA-MB-134-VI, MDAMB134VI cell line, censored GI50 values) of the same molecule?
**A.** 1050 nM

**Q.** And the GI50 (MDA-MB-157, MDAMB157 cell line, censored GI50 values)?
**A.** 550 nM

**Q.** What about the GI50 (MDA-MB-157, cell line MDAMB157) of the same molecule?
**A.** 550 nM

**Q.** And the GI50 (MDA-MB-175-VII, MDAMB175VII cell line, censored GI50 values)?
**A.** 100 nM

**Q.** What about the GI50 (MDA-MB-231, MDAMB231 cell line, censored GI50 values) of the same molecule?
**A.** 269 nM

**Q.** What about the GI50 (MDA-MB-231, cell line MDAMB231) of the same molecule?
**A.** 269 nM

**Q.** And the GI50 (MDA-MB-361, MDAMB361 cell line, censored GI50 values)?
**A.** 224 nM

**Q.** What about the GI50 (MDA-MB-361, cell line MDAMB361) of the same molecule?
**A.** 224 nM

**Q.** What about the GI50 (MDA-MB-415, MDAMB415 cell line, censored GI50 values) of the same molecule?
**A.** 263 nM

**Q.** What about the GI50 (MDA-MB-415, cell line MDAMB415) of the same molecule?
**A.** 263 nM

**Q.** And the GI50 (MDA-MB-436, MDAMB436 cell line, censored GI50 values)?
**A.** 708 nM

**Q.** And the GI50 (MDA-MB-436, cell line MDAMB436)?
**A.** 708 nM

**Q.** What about the GI50 (MDA-MB-453, MDAMB453 cell line, censored GI50 values) of the same molecule?
**A.** 224 nM

**Q.** And the GI50 (MDA-MB-453, cell line MDAMB453)?
**A.** 224 nM

**Q.** And the GI50 (MDA-MB-468, MDAMB468 cell line, censored GI50 values)?
**A.** 692 nM

**Q.** What about the GI50 (MDA-MB-468, cell line MDAMB468) of the same molecule?
**A.** 692 nM

**Q.** And the GI50 (SUM52PE, SUM52PE cell line, censored GI50 values)?
**A.** 295 nM

**Q.** And the GI50 (SUM52PE, cell line SUM52PE)?
**A.** 295 nM

**Q.** What about the GI50 (SUM149PT, SUM149PT cell line, censored GI50 values) of the same molecule?
**A.** 219 nM

**Q.** What about the GI50 (SUM149PT, cell line SUM149PT) of the same molecule?
**A.** 219 nM

**Q.** What about the GI50 (SUM185PE, SUM185PE cell line, censored GI50 values) of the same molecule?
**A.** 407 nM

**Q.** What about the GI50 (SUM185PE, cell line SUM185PE) of the same molecule?
**A.** 407 nM

**Q.** What about the GI50 (SUM1315MO2, SUM1315MO2 cell line, censored GI50 values) of the same molecule?
**A.** 36.3 nM

**Q.** What about the GI50 (SUM-159-PT, SUM159PT cell line, censored GI50 values) of the same molecule?
**A.** 141 nM

**Q.** What about the GI50 (SUM-159-PT, cell line SUM159PT) of the same molecule?
**A.** 141 nM

**Q.** And the GI50 (UACC-812, UACC812 cell line, censored GI50 values)?
**A.** 251 nM

**Q.** And the GI50 (UACC-812, cell line UACC812)?
**A.** 251 nM

**Q.** And the GI50 (UACC-893, UACC893 cell line, censored GI50 values)?
**A.** 776 nM

**Q.** What about the GI50 (UACC-893, cell line UACC893) of the same molecule?
**A.** 776 nM

**Q.** And the GI50 (ZR-75-1, ZR751 cell line, censored GI50 values)?
**A.** 251 nM

**Q.** And the GI50 (ZR-75-1, cell line ZR751)?
**A.** 251 nM

**Q.** What about the GI50 (ZR-75B, ZR75B cell line, censored GI50 values) of the same molecule?
**A.** 115 nM

**Q.** And the GI50 (ZR-75B, cell line ZR75B)?
**A.** 115 nM

**Q.** And the GI50 (cell line 600MPE)?
**A.** 347 nM

**Q.** What about the GI50 (cell line HCC2185) of the same molecule?
**A.** 126 nM

**Q.** And the GI50 (cell line HCC3153)?
**A.** 646 nM

**Q.** What about the GI50 (cell line LY2) of the same molecule?
**A.** 214 nM

**Q.** And the GI50 (cell line MDAMB134V)?
**A.** 1050 nM

**Q.** And the GI50 (cell line MDAMB175V)?
**A.** 100 nM

**Q.** And the GI50 (cell line SUM1315MO)?
**A.** 36.3 nM
